# From patent US5663335A, “Immunosuppressive compounds and methods” (priority 1996, dated 1997)
# Entries after “also recorded” stand apart in the source; their conditions may differ. Structures can show the parent of a compound that is named as a salt.
# Tests used:
# [1] = tested on: rat heart allograft rejection (Brown Norway donor, Lewis recipient); experiment: Heterotopic cardiac allograft survival (heart transplantation model); type: in vivo; settings: for mean survival time: intraperitoneal, daily, day -1 to day 14; for mean survival time compared with underivatized triptolide: equimolar doses: YM-273 0.40 mg/kg, YM-274 0.33 mg/kg, T10 0.25 mg/kg, i.p.
# Excerpt: Treatment of transplantation rejection, in accordance with the invention, is illustrated for rejection of an allograft by the heart transplantation model used in Example 14. The method involves a well-characterized rat model system (Oho and Lindsey, 1969) in which a transplanted heart is attached to the abdominal great vessels of an allogeneic recipient animal, and the viability of the transplanted heart is gauged by the heart's ability to beat in the recipient animal.
# In one study, the animals were administered by intraperitoneal injections, from one day preceding to 14 days following heart transplantation, either control solution (5% ethanol, 10 ml/kg), triptolide (designated as T10), or with two concentrations each of YM-273 and YM-274. There were three animals in each group, except for the control group in which five animals were used.
# Heterotopic whole heart transplantation was performed according to the standard method (Oho and Lindsey, 1969). The donors (Brown Norway rats, 200-255 g, Charles River, Wilmington, Mass.) and recipients (Adult male Lewis rats, 225-275 g, Charles River) were anesthetized with sodium pentobarbital (40 mg/kg). Following adequate donor anticoagulation using heparin, the heart graft was removed and stored at 4° C. in PhysioSol Irrigation Solution (Abbott Laboratories, N. Chicago, Ill.). The ascending aorta and pulmonary artery were transected, and the vena cava and pulmonary veins were ligated. […] The cold ischemic time of all the cardiac grafts was less than 45 minutes. Graft heartbeat was monitored by abdominal palpation. The period of functional graft survival was measured as the number of days during which cardiac graft contractions could be detected by abdominal palpation. Results were confirmed by direct visualization at laparotomy.
# Heart transplant recipient animals prepared as described above (3-5 animals/group) were treated with (i) control solution (5% ethanol, 10 ml/kg), (ii) YM-273 at 0.10 mg/kg and 0.40 mg/kg (FIG. 5A), (iii) YM-274 at 0.084 and 0.33 mg/kg (FIG. 5B), and (iv) and T10 (triptolide) 0.25 mg/kg (FIG. 6). In addition to showing the results for T10, FIG. 6 repeats the results from FIGS. 5A-5B for YM-273 and YM-274 at 0.40 and 0.33 mg/kg, respectively, such that their concentrations were equimolar relative to T10. All compounds were administered intraperitoneally. Treatment started on the day prior to surgery and continuing daily until postoperative day 14, or until the end of allograft survival.
# [2] = Stability in water (D2O solution, 1H NMR); type: physicochemical; settings: 3 mg/ml, room temperature, Succinate Sodium Salt
# Experimental: Sodium triptolide succinate, designated YM-274, was dissolved in D2 O, and the aqueous solution was stored at room temperature.
# A solution of sodium triptolide succinate (YM-274) in D2 O was prepared at a concentration of 3 mg/ml and stored at room temperature. The solution was analyzed by ^1 H NMR at intervals of 1, 3, 5, 15, 45, 90, 180 minutes; 1, 7, 14 days; and 1, 2, 3, and 5 months.
# [3] = Cytotoxicity by MTT assay, reported with the IL-1 assay (Table I); type: cell-based; settings: mouse, thymocytes, cytotoxic when toxicity greater than 25%
# Experimental: Potential cytotoxicity of the test samples was assessed by the measurement of their effect on the reduction of MTT (3-[4,5-Dimethylthiazole-2-yl]-2,5-diphenyltetrazolium bromide) by cultured cells. MTT, a yellow-colored compound, is reduced by mitochondrial enzymes to form the purple crystalline reduction product formazane, providing an index of cellular respiration on viable cells as well as a sensitive assay for cytotoxicity (Mossmann, 1983).
# The cytotoxicity was assessed in cultured human PBMC and mouse thymocytes. A stock solution of MTT (Sigma) at 5 mg/ml in phosphate buffered saline, pH 7.4, was prepared and stored in the dark at 4° C. PBMCs or thymocytes were cultured with various concentrations of test samples in flatbottom 96-well tissue culture plates (Costar) under the same conditions as those described above, but the stimulants (X-35 or IL-1+PHA) were replaced by appropriate medium. Untreated cells with medium alone and without the test samples were used as controls. After incubation for 21 hours, 25 μl of MTT solution was added to each well. After an additional three hours of incubation, the experiment was terminated by addition of a solution of 10% sodium dodecyl sulfate in 0.01N HCl. Following overnight incubation at 37° C. to solubilize the formazane crystals, optical density was determined at 570-650 nm in microplate reader. […]
# [4] = Stability in blood serum (TLC); type: in vitro ADME; settings: rat serum, 37° C; for stability in serum, 3 to 5 minutes: first 3 to 5 minutes
# Experimental: The stability of triptolide succinate in blood serum was determined as detailed in Example 10B. In this study, a solution of triptolide succinate (YM-262, free acid) in DMSO was mixed with rat serum and incubated at 37° C. The mixture was assayed periodically by thin layer chromatography (TLC) to follow the hydrolysis of the triptolide succinate over time.
# A solution of triptolide succinate (free acid; YM-262) in DMSO was made at a concentration of 25 mg/ml, and 0.1 ml of this solution was mixed with 0.5 ml of rat serum. The mixture was incubated at 37° C. Aliquots of the mixture were taken at 1, 3, 5, 15, 45 minutes and 18 hours and analyzed by thin layer chromatography (TLC). The TLC plates were developed in 1:5 CH2 CI2 /Et2 O. After development, the plates were treated with iodine vapor and examined under a UV lamp. Triptolide and triptolide succinate were used as reference compounds (Rf =0.60), and 0.45, respectively).
smiles,measurement,setting,value
"CC(C)C12OC1C1OC13C1(C)CCC4=C(COC4=O)C1CC1OC13C2OC(=O)CCC(=O)O (stereo not drawn) [YM-273, Triptolide Succinate Tris Salt]",mean survival time,[1]; 0.1 mg/kg,7 days
same,mean survival time,[1]; 0.4 mg/kg,24 days
same,mean survival time compared with underivatized triptolide,[1],somewhat better
"CC(C)C12OC1C1OC13C1(C)CCC4=C(COC4=O)C1CC1OC13C2OC(=O)CCC(=O)O (stereo not drawn) [YM-274, Triptolide Succinate Sodium Salt]","stability in D2O, five months",[2]; five months,Some decomposition was apparent after 5 months; also recorded: some decomposition was observed
same,"stability in D2O, up to three months",[2]; three months,no appreciable change in the NMR spectrum during the first three months; also recorded: unchanged after three months in solution
same,mean survival time,[1]; 0.0837 mg/kg,10 days
same,mean survival time compared with underivatized triptolide,[1]; Succinate Sodium Salt,substantially better
"CC(C)C12OC1C1OC13C1(C)CCC4=C(COC4=O)C1CC1OC13C2OC(=O)CCC(=O)O (stereo not drawn) [YM-262, Triptolide Succinate]",MCC,[3],> 12.5 µg/mL
same,time for hydrolysis of the triptolide ester to free triptolide in serum,[4],less than an hour
same,"stability in serum, 15 minutes",[4]; 15 minutes,the triptolide succinate spot was gone
same,"stability in serum, 3 to 5 minutes",[4],most of the triptolide succinate remained
same,"stability in serum, 3 to 5 minutes",[4]; listed as triptolide succinate,only triptolide succinate was detected by TLC
